Results taken from ChEMBL document CHEMBL4507320, “Data for DCP probe NVS-MALT1” (2021).

Legend:
Conditions in all cases: Compound concentration 1000.0 nM
[1] = molecular target: Eukaryotic translation initiation factor 2-alpha kinase 1 (Homo sapiens) (UniProt Q9BQI3)
[2] = molecular target: cGMP-dependent protein kinase 2 (Homo sapiens) (UniProt Q13237)
[3] = molecular target: Serine/threonine-protein kinase 32A (Homo sapiens) (UniProt Q8WU08)
[4] = molecular target: Serine/threonine-protein kinase OSR1 (Homo sapiens) (UniProt O95747)
[5] = molecular target: Calcium/calmodulin-dependent protein kinase type II subunit beta (Homo sapiens) (UniProt Q13554)
[6] = molecular target: Casein kinase I isoform alpha-like (Homo sapiens) (UniProt Q8N752)
[7] = molecular target: ALK tyrosine kinase receptor (Homo sapiens) (UniProt Q9UM73)
[8] = molecular target: Serine/threonine-protein kinase 32B (Homo sapiens) (UniProt Q9NY57)
[9] = test system: Receptor-type tyrosine-protein kinase FLT3 (Homo sapiens), P36888 [N841I]
[10] = molecular target: Serine/threonine-protein kinase MRCK gamma (Homo sapiens) (UniProt Q6DT37)
[11] = molecular target: Serine/threonine-protein kinase Nek11 (Homo sapiens) (UniProt Q8NG66)
[12] = molecular target: Calcium/calmodulin-dependent protein kinase type 1B (Homo sapiens) (UniProt Q6P2M8)
[13] = molecular target: Tyrosine-protein kinase JAK1 (Homo sapiens) (UniProt P23458)
[14] = molecular target: 5'-AMP-activated protein kinase catalytic subunit alpha-2 (Homo sapiens) (UniProt P54646)
[15] = molecular target: Ephrin type-A receptor 3 (Homo sapiens) (UniProt P29320)
[16] = molecular target: Serine/threonine-protein kinase VRK2 (Homo sapiens) (UniProt Q86Y07)
[17] = molecular target: Tyrosine-protein kinase Yes (Homo sapiens) (UniProt P07947)
[18] = molecular target: Dual specificity testis-specific protein kinase 1 (Homo sapiens) (UniProt Q15569)
[19] = test system: Proto-oncogene tyrosine-protein kinase receptor Ret (Homo sapiens), P07949 [V804L]
[20] = test system: Mast/stem cell growth factor receptor Kit (Homo sapiens), P10721 [A829P]
[21] = molecular target: Ribosomal protein S6 kinase alpha-1 (Homo sapiens) (UniProt Q15418)
[22] = molecular target: Tyrosine-protein kinase receptor Tie-1 (Homo sapiens) (UniProt P35590)
[23] = molecular target: Platelet-derived growth factor receptor beta (Homo sapiens) (UniProt P09619)
[24] = molecular target: Serine/threonine-protein kinase SBK1 (Homo sapiens) (UniProt Q52WX2)
[25] = molecular target: Mitogen-activated protein kinase kinase kinase 12 (Homo sapiens) (UniProt Q12852)
[26] = molecular target: Cyclin-dependent kinase 9 (Homo sapiens) (UniProt P50750)
[27] = molecular target: Tyrosine-protein kinase Tec (Homo sapiens) (UniProt P42680)
[28] = test system: Fibroblast growth factor receptor 3 (Homo sapiens), P22607 [G697C]
[29] = molecular target: Cyclin-dependent kinase 2 (Homo sapiens) (UniProt P24941)
[30] = molecular target: Mitogen-activated protein kinase 14 (Homo sapiens) (UniProt Q16539)
[31] = molecular target: Serine/threonine-protein kinase Nek10 (Homo sapiens) (UniProt Q6ZWH5)
[32] = molecular target: Mitogen-activated protein kinase kinase kinase 19 (Homo sapiens) (UniProt Q56UN5)
[33] = molecular target: Serine/threonine-protein kinase Sgk2 (Homo sapiens) (UniProt Q9HBY8)
[34] = molecular target: Mitogen-activated protein kinase 8 (Homo sapiens) (UniProt P45983)
[35] = molecular target: Tyrosine-protein kinase BTK (Homo sapiens) (UniProt Q06187)
[36] = molecular target: Serine/threonine-protein kinase TAO1 (Homo sapiens) (UniProt Q7L7X3)
[37] = molecular target: Dual specificity protein kinase TTK (Homo sapiens) (UniProt P33981)
[38] = molecular target: Tyrosine-protein kinase receptor TYRO3 (Homo sapiens) (UniProt Q06418)
[39] = molecular target: Casein kinase II subunit alpha (Homo sapiens) (UniProt P68400)
[40] = molecular target: Dual specificity protein kinase CLK3 (Homo sapiens) (UniProt P49761)
[41] = molecular target: Myotonin-protein kinase (Homo sapiens) (UniProt Q09013)
[42] = molecular target: Cytoplasmic tyrosine-protein kinase BMX (Homo sapiens) (UniProt P51813)
[43] = molecular target: Tyrosine-protein kinase Fyn (Homo sapiens) (UniProt P06241)
[44] = molecular target: Serine/threonine-protein kinase ULK3 (Homo sapiens) (UniProt Q6PHR2)
[45] = molecular target: Serine/threonine-protein kinase PknB (Mycobacterium tuberculosis) (UniProt P9WI81)

Sequence of Ephrin type-A receptor 3 (Homo sapiens) (P29320 whole entry): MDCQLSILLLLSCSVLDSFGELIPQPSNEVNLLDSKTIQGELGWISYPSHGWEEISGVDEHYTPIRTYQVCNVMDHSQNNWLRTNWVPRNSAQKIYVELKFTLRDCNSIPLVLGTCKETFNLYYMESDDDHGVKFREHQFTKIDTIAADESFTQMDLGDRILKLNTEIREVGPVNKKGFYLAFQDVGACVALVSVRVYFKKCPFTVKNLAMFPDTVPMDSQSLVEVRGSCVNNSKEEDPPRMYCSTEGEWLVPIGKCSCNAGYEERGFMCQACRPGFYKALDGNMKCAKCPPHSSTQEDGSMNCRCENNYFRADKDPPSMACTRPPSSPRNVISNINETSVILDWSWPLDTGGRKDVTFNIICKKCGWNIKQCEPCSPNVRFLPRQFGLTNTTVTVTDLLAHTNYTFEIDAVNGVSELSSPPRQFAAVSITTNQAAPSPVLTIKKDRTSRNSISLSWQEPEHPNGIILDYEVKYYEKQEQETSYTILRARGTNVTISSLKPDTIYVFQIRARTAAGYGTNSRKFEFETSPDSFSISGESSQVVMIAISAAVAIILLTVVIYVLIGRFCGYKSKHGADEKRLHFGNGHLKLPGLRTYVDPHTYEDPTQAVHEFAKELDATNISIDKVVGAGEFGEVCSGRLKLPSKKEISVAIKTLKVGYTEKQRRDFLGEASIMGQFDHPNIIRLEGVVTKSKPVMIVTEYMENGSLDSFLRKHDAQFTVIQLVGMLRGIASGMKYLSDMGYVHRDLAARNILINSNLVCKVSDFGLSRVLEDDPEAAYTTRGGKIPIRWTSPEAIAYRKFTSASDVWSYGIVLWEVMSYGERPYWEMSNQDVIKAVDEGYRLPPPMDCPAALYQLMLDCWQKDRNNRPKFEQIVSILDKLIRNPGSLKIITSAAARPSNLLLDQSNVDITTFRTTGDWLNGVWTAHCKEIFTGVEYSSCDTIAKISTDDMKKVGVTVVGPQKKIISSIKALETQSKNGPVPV
Sequence of Serine/threonine-protein kinase SBK1 (Homo sapiens) (Q52WX2 whole entry): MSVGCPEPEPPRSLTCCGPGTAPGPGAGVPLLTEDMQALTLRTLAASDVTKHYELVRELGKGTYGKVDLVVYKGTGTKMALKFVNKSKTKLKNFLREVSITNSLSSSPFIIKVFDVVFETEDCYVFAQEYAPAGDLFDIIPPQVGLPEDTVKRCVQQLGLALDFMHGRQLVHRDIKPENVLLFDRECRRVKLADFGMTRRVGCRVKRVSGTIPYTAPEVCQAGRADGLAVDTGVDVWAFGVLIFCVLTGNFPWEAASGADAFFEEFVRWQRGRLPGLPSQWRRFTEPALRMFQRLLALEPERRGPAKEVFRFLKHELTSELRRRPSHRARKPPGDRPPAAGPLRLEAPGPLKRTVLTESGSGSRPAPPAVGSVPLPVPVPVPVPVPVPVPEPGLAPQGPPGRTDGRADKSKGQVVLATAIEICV
Sequence of Mitogen-activated protein kinase kinase kinase 19 (Homo sapiens) (Q56UN5 whole entry): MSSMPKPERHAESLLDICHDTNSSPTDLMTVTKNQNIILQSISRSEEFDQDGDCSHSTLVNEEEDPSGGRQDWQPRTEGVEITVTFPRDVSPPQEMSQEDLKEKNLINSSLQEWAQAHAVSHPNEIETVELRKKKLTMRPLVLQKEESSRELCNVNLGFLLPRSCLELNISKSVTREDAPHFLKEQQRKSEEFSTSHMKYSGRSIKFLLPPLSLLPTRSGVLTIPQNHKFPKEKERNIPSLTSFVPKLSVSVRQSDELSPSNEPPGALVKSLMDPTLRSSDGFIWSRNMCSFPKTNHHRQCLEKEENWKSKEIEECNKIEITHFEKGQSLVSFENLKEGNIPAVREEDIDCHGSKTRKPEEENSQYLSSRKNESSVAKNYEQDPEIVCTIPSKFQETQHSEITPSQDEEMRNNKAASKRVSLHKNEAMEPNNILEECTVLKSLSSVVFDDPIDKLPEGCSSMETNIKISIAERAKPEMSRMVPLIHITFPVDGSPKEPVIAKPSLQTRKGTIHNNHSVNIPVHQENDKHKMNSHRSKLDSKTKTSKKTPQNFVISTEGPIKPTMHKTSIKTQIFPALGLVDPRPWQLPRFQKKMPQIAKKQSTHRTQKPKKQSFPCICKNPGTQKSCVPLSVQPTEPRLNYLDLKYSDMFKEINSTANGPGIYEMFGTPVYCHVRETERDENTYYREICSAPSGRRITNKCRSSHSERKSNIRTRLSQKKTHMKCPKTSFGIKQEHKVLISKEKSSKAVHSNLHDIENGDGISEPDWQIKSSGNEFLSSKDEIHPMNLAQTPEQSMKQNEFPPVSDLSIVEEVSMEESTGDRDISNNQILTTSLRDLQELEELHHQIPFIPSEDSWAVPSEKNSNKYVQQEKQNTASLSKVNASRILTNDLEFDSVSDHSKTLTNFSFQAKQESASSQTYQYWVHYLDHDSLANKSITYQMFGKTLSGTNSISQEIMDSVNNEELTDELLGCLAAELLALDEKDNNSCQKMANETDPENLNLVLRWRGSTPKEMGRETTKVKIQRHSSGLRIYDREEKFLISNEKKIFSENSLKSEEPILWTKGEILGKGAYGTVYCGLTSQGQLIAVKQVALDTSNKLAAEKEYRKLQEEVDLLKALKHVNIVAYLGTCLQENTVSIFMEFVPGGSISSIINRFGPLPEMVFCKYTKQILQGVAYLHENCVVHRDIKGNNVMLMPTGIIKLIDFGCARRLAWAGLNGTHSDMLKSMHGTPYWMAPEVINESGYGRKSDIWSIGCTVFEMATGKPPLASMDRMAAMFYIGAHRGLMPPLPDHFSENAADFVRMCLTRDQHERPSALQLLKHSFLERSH
Sequence of Proto-oncogene tyrosine-protein kinase receptor Ret (Homo sapiens), P07949 [V804L] (P07949 whole entry V804L): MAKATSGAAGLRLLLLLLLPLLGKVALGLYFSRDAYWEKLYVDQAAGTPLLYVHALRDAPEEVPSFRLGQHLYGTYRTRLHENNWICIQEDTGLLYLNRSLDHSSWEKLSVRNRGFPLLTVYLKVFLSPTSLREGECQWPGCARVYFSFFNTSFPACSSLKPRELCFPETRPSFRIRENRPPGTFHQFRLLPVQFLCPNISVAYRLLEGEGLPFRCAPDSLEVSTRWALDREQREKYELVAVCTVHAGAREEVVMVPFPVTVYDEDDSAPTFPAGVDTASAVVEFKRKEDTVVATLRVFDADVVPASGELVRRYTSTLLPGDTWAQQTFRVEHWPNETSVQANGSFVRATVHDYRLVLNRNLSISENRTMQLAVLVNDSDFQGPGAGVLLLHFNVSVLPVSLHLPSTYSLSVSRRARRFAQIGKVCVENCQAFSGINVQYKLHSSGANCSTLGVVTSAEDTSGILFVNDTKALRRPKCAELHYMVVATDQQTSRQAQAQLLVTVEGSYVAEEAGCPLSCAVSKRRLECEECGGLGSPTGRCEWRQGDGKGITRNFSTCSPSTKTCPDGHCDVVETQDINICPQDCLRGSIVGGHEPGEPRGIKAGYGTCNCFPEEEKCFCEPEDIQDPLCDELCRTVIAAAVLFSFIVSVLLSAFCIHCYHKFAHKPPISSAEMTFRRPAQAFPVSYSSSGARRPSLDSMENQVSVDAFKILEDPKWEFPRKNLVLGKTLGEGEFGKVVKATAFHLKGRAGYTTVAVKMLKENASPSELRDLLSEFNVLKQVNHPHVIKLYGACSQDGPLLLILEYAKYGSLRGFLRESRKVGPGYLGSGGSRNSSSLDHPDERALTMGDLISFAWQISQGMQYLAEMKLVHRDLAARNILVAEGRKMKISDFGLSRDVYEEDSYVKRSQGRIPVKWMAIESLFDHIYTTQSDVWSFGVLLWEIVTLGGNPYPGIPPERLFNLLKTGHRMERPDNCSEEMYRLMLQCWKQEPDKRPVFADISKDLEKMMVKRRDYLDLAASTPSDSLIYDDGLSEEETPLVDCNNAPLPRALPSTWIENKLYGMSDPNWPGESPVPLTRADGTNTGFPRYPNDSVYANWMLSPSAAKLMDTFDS
Sequence of Tyrosine-protein kinase JAK1 (Homo sapiens) (P23458 whole entry): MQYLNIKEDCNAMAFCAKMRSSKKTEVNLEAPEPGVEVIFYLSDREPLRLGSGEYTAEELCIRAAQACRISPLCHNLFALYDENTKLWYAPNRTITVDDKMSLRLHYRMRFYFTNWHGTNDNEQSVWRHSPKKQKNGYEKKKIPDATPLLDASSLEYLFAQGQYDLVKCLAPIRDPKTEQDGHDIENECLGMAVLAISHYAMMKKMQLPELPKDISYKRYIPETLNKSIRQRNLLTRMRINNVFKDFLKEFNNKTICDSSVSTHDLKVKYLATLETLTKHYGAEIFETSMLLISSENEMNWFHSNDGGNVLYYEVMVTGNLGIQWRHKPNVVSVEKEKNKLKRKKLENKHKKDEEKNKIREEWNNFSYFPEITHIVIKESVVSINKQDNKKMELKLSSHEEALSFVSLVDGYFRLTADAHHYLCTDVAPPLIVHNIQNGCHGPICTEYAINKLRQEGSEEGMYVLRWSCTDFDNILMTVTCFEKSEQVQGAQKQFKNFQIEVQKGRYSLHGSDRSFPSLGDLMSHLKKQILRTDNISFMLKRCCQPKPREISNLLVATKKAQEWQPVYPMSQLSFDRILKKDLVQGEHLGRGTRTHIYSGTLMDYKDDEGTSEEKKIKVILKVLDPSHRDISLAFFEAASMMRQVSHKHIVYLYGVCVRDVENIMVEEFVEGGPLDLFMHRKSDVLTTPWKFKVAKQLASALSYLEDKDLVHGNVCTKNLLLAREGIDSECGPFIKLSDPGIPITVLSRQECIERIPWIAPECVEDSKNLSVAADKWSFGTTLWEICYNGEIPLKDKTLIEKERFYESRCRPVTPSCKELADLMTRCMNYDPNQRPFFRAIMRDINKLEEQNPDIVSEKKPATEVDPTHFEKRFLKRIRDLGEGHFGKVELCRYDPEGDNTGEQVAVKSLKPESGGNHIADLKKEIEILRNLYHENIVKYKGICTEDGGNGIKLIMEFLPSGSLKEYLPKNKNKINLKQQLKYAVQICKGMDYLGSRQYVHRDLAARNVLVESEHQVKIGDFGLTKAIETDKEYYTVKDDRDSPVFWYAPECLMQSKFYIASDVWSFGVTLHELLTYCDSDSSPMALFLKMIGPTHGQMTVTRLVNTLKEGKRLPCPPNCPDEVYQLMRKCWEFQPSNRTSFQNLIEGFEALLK

CO[C@@H](C)c1c(Nc2ccc([C@@H](N(C)C(=O)C3CCS(=O)(=O)CC3)C(F)(F)F)cc2)cnc2cc(Cl)nn12 [NVS-MALT1-C]
residual activity [1]: 100%
residual activity [2]: 100%
residual activity [3]: 100%
residual activity [4]: 100%
residual activity [5]: 96%
residual activity [6]: 84%
residual activity [7]: 100%
residual activity [8]: 95%
residual activity [9]: 57%
residual activity [10]: 86%
residual activity [11]: 100%
residual activity [12]: 100%
residual activity [13]: 90%
residual activity [14]: 78%
residual activity [15]: 90%
residual activity [16]: 100%
residual activity [17]: 100%
residual activity [18]: 83%
residual activity [19]: 78%
residual activity [20]: 100%
residual activity [21]: 65%
residual activity [22]: 96%
residual activity [23]: 100%
residual activity [24]: 100%
residual activity [25]: 100%
residual activity [26]: 100%
residual activity [27]: 82%
residual activity [28]: 84%
residual activity [29]: 100%
residual activity [30]: 83%
residual activity [31]: 100%
residual activity [32]: 77%
residual activity [33]: 99%
residual activity [34]: 69%
residual activity [35]: 100%
residual activity [36]: 100%
residual activity [37]: 100%
residual activity [38]: 99%
residual activity [39]: 100%
residual activity [40]: 87%
residual activity [41]: 91%
residual activity [42]: 83%
residual activity [43]: 95%
residual activity [44]: 97%
residual activity [45]: 100%

CO[C@@H](C)c1c(Nc2ccc([C@H](N(C)C(=O)C3CCS(=O)(=O)CC3)C(F)(F)F)cc2)cnc2cc(Cl)nn12 [NVS-MALT1]
residual activity [1]: 100%
residual activity [2]: 100%
residual activity [3]: 100%
residual activity [4]: 100%
residual activity [5]: 94%
residual activity [6]: 65%
residual activity [7]: 100%
residual activity [8]: 89%
residual activity [9]: 23%
residual activity [10]: 87%
residual activity [11]: 100%
residual activity [12]: 100%
residual activity [13]: 91%
residual activity [14]: 100%
residual activity [15]: 97%
residual activity [16]: 100%
residual activity [17]: 99%
residual activity [18]: 85%
residual activity [19]: 86%
residual activity [20]: 100%
residual activity [21]: 71%
residual activity [22]: 92%
residual activity [23]: 100%
residual activity [24]: 100%
residual activity [25]: 100%
residual activity [26]: 85%
residual activity [27]: 84%
residual activity [28]: 86%
residual activity [29]: 88%
residual activity [30]: 88%
residual activity [31]: 100%
residual activity [32]: 91%
residual activity [33]: 91%
residual activity [34]: 86%
residual activity [35]: 100%
residual activity [36]: 100%
residual activity [37]: 77%
residual activity [38]: 100%
residual activity [39]: 100%
residual activity [40]: 87%
residual activity [41]: 84%
residual activity [42]: 99%
residual activity [43]: 100%
residual activity [44]: 94%
residual activity [45]: 87%
